Experimental data reported in patent US20260242419A1, “A CYCLIC PEPTIDE FOR TRAPPING INTERLEUKIN-1 BETA” (Merck Sharp & Dohme LLC, priority 2023, published 2026).
Where two headings read alike, the source gives them in different places. Starred links: 1 amine or outer side, 2 acyl side, 3 side chain; linkers in the order of their positions; H or OH if unused. Non-standard residues stand in square brackets, D forms with d. Residues, ends and D or L forms follow the SMILES beside them. dPro(4R-(4-pyridylmethyl)) = O=C(O)[C@H]1C[C@@H](Cc2ccncc2)CN1; Trp(βS-Me,4-F) = C[C@@H](c1c[nH]c2cccc(F)c12)[C@H](N)C(=O)O; Bip(4'-COOH) = N[C@@H](Cc1ccc(-c2ccc(C(=O)O)cc2)cc1)C(=O)O; Ala(1-bicyclo(1.1.1)pentyl) = N[C@@H](CC12CC(C1)C2)C(=O)O; dPro(4R-Bzl(4-F)) = O=C(O)[C@H]1C[C@@H](Cc2ccc(F)cc2)CN1; X4 = O=C([C@H]1[C@@H](Cc2ccncc2)CCN1[*:1])[*:2]; X5 = O=C([C@H]1C[C@@H](Cc2ccccc2)CN1[*:1])[*:2]; Ala(pyrimidin-5-yl) = N[C@@H](Cc1cncnc1)C(=O)O; Phe(4-COOH) = N[C@@H](Cc1ccc(C(=O)O)cc1)C(=O)O; Pro(cis-4-F) = O=C(O)[C@@H]1C[C@H](F)CN1; X46 = O=C([C@@H](Cc1cncnc1)N[*:1])[*:2]; 4Pal = N[C@@H](Cc1ccncc1)C(=O)O; d(αMeS) = C[C@@](N)(CO)C(=O)O; Dab = NCC[C@H](N)C(=O)O; Aib = CC(C)(N)C(=O)O

Biological target: T1, IL-1β (Homo sapiens, UniProt P01584)
T1 construct: purchased BioLegend 579404
T1 sequence (P01584 117-269): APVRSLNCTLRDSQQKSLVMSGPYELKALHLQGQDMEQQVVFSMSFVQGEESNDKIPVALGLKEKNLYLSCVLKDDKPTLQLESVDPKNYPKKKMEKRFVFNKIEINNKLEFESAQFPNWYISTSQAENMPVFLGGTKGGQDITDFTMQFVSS
Experiment: IL-6 assay in MRC5 cells: inhibition of IL-1β induced IL-6 secretion (AlphaLISA)
Assay type: cell-based
Details: inhibition of IL-1β induced IL-6 secretion in MRC5 cells, read-out: MRC5 IC50
Procedure: Procedure for IL-6 Assay in MRC5 Cells
The inhibition of IL-1β induced IL-6 secretion was evaluated in MRC5 cells. Recombinant human IL-1β (BioLegend 579404) at 2λ EC80 concentration was prepared in seeding medium. EMEM (ATCC 30-2003) with 0.025% BSA (Sigma A9576), 1×penicillin/streptomycin (Gibco 15070-063), 1×NEAA (Gibco 11140-050), 1×GlutaMax (Gibco 35050-061), and 1×sodium pyruvate (Gibco 11360-070), 20 μL of IL-1β was added to a 384-well collagen-coated plate (Corning 354664) and pre-incubated at ambient temperature for 1 hour with 200 nL of compound dispensed using an ECHO 555 liquid handler. Human lung fibroblast MRC5 cells (ATCC CCL-171) were added at a density of 3000 cells/20 μL per well. The cells were prepared by passaging three times in growth medium, EMEM (ATCC 30-2003) with 10% fetal bovine serum (Gibco 16140-071), 1×penicillin/streptomycin (Gibco 15070-063), 1×NEAA (Gibco 11140-050), 1×GlutaMax (Gibco 35050-061), and 1×sodium pyruvate (Gibco 11360-070) in collagen-coated T175 flasks (Greiner 661950) and harvested in seeding medium after 5 minutes of 0.25% trypsin-EDTA (Gibco 25200-056) digestion. The 384-well collagen-coated plate, containing a final volume of 40 μL, was incubated at 37° C., 5% CO2 overnight. 5 μL of the conditioned medium was transferred to a 384-well AlphaLISA plate (PerkinElmer 6005350) for detection of IL-6 using the human AlphaLISA IL-6 kit (PerkinElmer AL223F) as per the manufacturer's protocol. 20 μL of the acceptor bead/biotinylated antibody mix was added to the 384-well AlphaLISA plate and incubated for 1 hour at ambient temperature. The donor bead mix was protected from light and 25 μL was added to the plate and incubated for 30 minutes at ambient temperature. The AlphaLISA plate was read on an EnVision multimode plate reader (Perkin Elmer model 2104) using the AlphaScreen setting (laser exc at 680 nm and emis at […]). Dose response curves and IC50 values were analyzed using a 4-parameter logistic equation in Spotfire software (Tibco, Palo Alto, CA).

Compound `C[C@@H](c1c[nH]c2cccc(F)c12)[C@@H]1NC(=O)[C@@H]2C[C@H](F)CN2C(=O)CNC(=O)[C@H](Cc2ccc(C(=O)O)cc2)NC(=O)[C@H](CC23CC(C2)C3)NC(=O)[C@H](Cc2ccc(-c3ccc(C(=O)O)cc3)cc2)NC(=O)[C@H]2C[C@@H](Cc3ccncc3)CN2C(=O)CNC(=O)[C@H](CCN)NC(=O)[C@H](CCC(N)=O)NC(=O)[C@H](Cc2cncnc2)NC(=O)[C@@](C)(CO)NC(=O)[C@H](Cc2c[nH]c3ccccc23)NC(=O)[C@H](CO)NC(=O)C(C)(C)NC1=O` [Example 112] (cyclo([Bip(4'-COOH)][Ala(1-bicyclo(1.1.1)pentyl)][Phe(4-COOH)]G[Pro(cis-4-F)][Trp(βS-Me,4-F)][Aib]SW[d(αMeS)][Ala(pyrimidin-5-yl)]Q[Dab]G[dPro(4R-(4-pyridylmethyl))])) has an IC50 of 18 pM.
`C[C@@H](c1c[nH]c2cccc(F)c12)[C@@H]1NC(=O)[C@@H]2C[C@H](F)CN2C(=O)CNC(=O)[C@H](Cc2ccc(C(=O)O)cc2)NC(=O)[C@H](Cc2ccncc2)NC(=O)[C@H](Cc2ccc(-c3ccc(C(=O)O)cc3)cc2)NC(=O)[C@H]2C[C@@H](Cc3ccccc3)CN2C(=O)CNC(=O)[C@H](CCN)NC(=O)[C@H](CCC(N)=O)NC(=O)[C@H](Cc2cncnc2)NC(=O)C(C)(C)NC(=O)[C@H](Cc2c[nH]c3ccccc23)NC(=O)[C@H](CCC(=O)O)NC(=O)C(C)(C)NC1=O` [Example 31] (cyclo([Bip(4'-COOH)][4Pal][Phe(4-COOH)]G[Pro(cis-4-F)][Trp(βS-Me,4-F)][Aib]EW[Aib][Ala(pyrimidin-5-yl)]Q[Dab]G[X5])) was tested, and the IC50 was 24 pM.
`C[C@@H](c1c[nH]c2cccc(F)c12)[C@@H]1NC(=O)[C@@H]2C[C@H](F)CN2C(=O)CNC(=O)[C@H](Cc2ccc(C(=O)O)cc2)NC(=O)[C@H](CC23CC(C2)C3)NC(=O)[C@H](Cc2ccc(-c3ccc(C(=O)O)cc3)cc2)NC(=O)[C@H]2C[C@@H](Cc3ccncc3)CN2C(=O)CNC(=O)[C@H](CCN)NC(=O)[C@H](CCC(N)=O)NC(=O)[C@H](Cc2cncnc2)NC(=O)C(C)(C)NC(=O)[C@H](Cc2c[nH]c3ccccc23)NC(=O)[C@H](CCC(=O)O)NC(=O)C(C)(C)NC1=O` [Example 43] (cyclo([Bip(4'-COOH)][Ala(1-bicyclo(1.1.1)pentyl)][Phe(4-COOH)]G[Pro(cis-4-F)][Trp(βS-Me,4-F)][Aib]EW[Aib][Ala(pyrimidin-5-yl)]Q[Dab]G[dPro(4R-(4-pyridylmethyl))])) was tested, and the IC50 was 26 pM.
`C[C@@H](c1c[nH]c2cccc(F)c12)[C@@H]1NC(=O)[C@@H]2C[C@H](F)CN2C(=O)CNC(=O)[C@H](Cc2ccc(C(=O)O)cc2)NC(=O)[C@H](Cc2ccncc2)NC(=O)[C@H](Cc2ccc(-c3ccc(C(=O)O)cc3)cc2)NC(=O)[C@H]2C[C@@H](Cc3ccc(F)cc3)CN2C(=O)CNC(=O)[C@H](CCN)NC(=O)[C@H](CCC(N)=O)NC(=O)[C@H](Cc2ccncc2)NC(=O)C(C)(C)NC(=O)[C@H](Cc2c[nH]c3ccccc23)NC(=O)[C@H](CCC(=O)O)NC(=O)C(C)(C)NC1=O` [Example 2] (cyclo([Bip(4'-COOH)][4Pal][Phe(4-COOH)]G[Pro(cis-4-F)][Trp(βS-Me,4-F)][Aib]EW[Aib][4Pal]Q[Dab]G[dPro(4R-Bzl(4-F))])) was tested, and the IC50 was 23 pM.
`C[C@@H](c1c[nH]c2cccc(F)c12)[C@@H]1NC(=O)[C@@H]2C[C@H](F)CN2C(=O)CNC(=O)[C@H](Cc2ccc(C(=O)O)cc2)NC(=O)[C@H](Cc2ccncc2)NC(=O)[C@H](Cc2ccc(-c3ccc(C(=O)O)cc3)cc2)NC(=O)[C@H]2[C@@H](Cc3ccncc3)CCN2C(=O)CNC(=O)[C@H](CCN)NC(=O)[C@H](CCC(N)=O)NC(=O)[C@@H](Cc2cncnc2)NC(=O)C(C)(C)NC(=O)[C@H](Cc2c[nH]c3ccccc23)NC(=O)[C@H](CO)NC(=O)C(C)(C)NC1=O` [Example 233] (cyclo([Bip(4'-COOH)][4Pal][Phe(4-COOH)]G[Pro(cis-4-F)][Trp(βS-Me,4-F)][Aib]SW[Aib][X46]Q[Dab]G[X4])) gave an IC50 (compound pre-incubated 1 hour with recombinant human IL-1β) of 30 pM.
